{
  "source": "patent US6426343B1",
  "about": "“Preparation and use of a specific GABA-Aα5 receptor ligand for treatment of Alzheimer's disease” (Merck Sharp & Dohme Ltd., priority 1995, dated 2002)",
  "key": {"rats [1]": {"tested_on": "rats", "assay": "Pro-convulsant testing, chronic treatment, PTZ infusion", "assay_type": "in vivo, rat", "conditions": "0.1, 0.3, 1.0 mg/kg IP, 24 doses, final dose 48 h before testing", "protocol": "The rats used in this study received chronic treatment with FG 8094 during a MWM experiment. The rats were dosed IP once per day (Monday to Friday) and received a total of 24 doses. Following each drug administration rats were tested in a MWM and received the final dose of drug 48 h prior to convulsant testing. The subjects were assigned to one of four treatment groups (n=8) and given either Vehicle, 0.1, 0.3, or 1.0 mg/kg of FG 8094.\nOn the day of proconvulsant testing, the rats were restrained and pentylenetetrazole (PTZ, 40.0 mg/ml) was infused as described above. The latency(s) to both clonic and tonic (full extension) convulsion was recorded. Latency data were transformed to yield the dose of PTZ needed to reach the threshold of both clonic and tonic seizures."}, "[2]": {"tested_on": "benzodiazepine binding site of α2/3-containing GABA receptors", "assay": "In vivo [3H]Ro 15-1788 binding, spinal cord", "conditions": "male, Swiss-Webster, mouse, in vivo, 1 mg/kg", "protocol": "(§1) The in vivo binding of [^3H]Ro 15-1788 to mouse brain was performed essentially as described by Goeders and Kuhar (1985). Male Swiss-Webster mice received a 0.9% NaCl solution containing 50 mCi/kg of [^3H]Ro 15-1788 (0.05 ml/10 g of body weight) via the tail vein. […] Each mouse brain was then rapidly removed, homogenised in 5.0 ml of 50 mM Tris HCl, 5.0 mM EDTA, pH 7.4 at 4° C. using an ultra-turrax homogeniser for 10 s at setting 5. In a separate series of experiments different brain regions, selected for their preferential expression of particular GABA subtypes were also examined. Binding of [^3H]Ro 15-1788 to cerebellum is almost exclusively α1-like (Quirk et al, 1994), whereas binding to spinal cord is indicative of binding to receptors containing α2 or α3-subtypes, α1, α4 and α5 are rare or absent in this region (Wisden et al, 1992). Brains were rapidly dissected into forebrain and cerebellum and the spinal cord was also removed. Each forebrain was homogenised in 4.0 ml of buffer (approximately 14 ml/g wet weight of tissue), each cerebellum was homogenised in 1.0 ml of buffer (approximately 14 ml/g wet weight of tissue) and each spinal cord in 1.0 ml of buffer (approximately 20.0 mg/g wet weight of tissue). Volumes ([…]) of homogenate were filtered rapidly through GF/B filters, washed with 2×5.0 ml volumes of ice-cold buffer and the residual radioactivity was counted by liquid scintillation spectroscopy.\n(§2) Mice were injected intraperitoneally with FG 8094, 10 mg/kg or 1 mg/kg, 30 minutes prior to sacrifice and [^3H]Ro 15-1788 (0.1 mCi/g). Brain regions were dissected, homogenised and filtered as described in methods."}, "Spinal cord (α2/3)": {"tested_on": "Spinal cord (α2/3)", "assay": "In vivo [3H]Ro 15-1788 binding, spinal cord", "conditions": "for percentage inhibition of in vivo [3H]Ro 15-1788 binding, spinal cord: 30 min, mean±SEM, relative to vehicle", "protocol": "as §1, §2"}, "GABAA receptors": {"tested_on": "GABAA receptors", "assay": "In vivo [3H]Ro 15-1788 binding in whole mouse brain", "protocol": "as §1, with “Each forebrain was homogenised in 4.0 ml of buffer (approximately 14 ml/g wet weight of tissue), each cerebellum was homogenised in 1.0 ml of buffer (approximately 14 ml/g wet weight of tissue) and each spinal cord in 1.0 ml of buffer (approximately 20.0 mg/g wet weight of tissue).” left out"}, "rats [3]": {"tested_on": "rats", "assay": "Watermaze experiment with SC pellet of FG 8094"}, "Cerebellum (α1)": {"biological_target": "Cerebellum (α1) (Mus musculus, UniProt P22723+P62812)", "sequence (P62812 28-455)": "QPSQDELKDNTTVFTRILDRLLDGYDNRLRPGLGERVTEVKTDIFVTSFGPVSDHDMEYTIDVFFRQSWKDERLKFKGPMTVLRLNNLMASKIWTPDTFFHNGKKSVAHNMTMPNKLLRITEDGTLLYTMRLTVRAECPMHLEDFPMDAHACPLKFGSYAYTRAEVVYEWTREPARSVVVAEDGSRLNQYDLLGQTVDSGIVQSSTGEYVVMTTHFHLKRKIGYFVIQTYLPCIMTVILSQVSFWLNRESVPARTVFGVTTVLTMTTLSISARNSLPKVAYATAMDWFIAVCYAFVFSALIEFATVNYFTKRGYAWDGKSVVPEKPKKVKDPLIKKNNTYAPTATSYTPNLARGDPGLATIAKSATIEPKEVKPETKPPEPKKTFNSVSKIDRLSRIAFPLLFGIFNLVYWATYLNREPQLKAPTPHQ", "sequence (P22723 39-474)": "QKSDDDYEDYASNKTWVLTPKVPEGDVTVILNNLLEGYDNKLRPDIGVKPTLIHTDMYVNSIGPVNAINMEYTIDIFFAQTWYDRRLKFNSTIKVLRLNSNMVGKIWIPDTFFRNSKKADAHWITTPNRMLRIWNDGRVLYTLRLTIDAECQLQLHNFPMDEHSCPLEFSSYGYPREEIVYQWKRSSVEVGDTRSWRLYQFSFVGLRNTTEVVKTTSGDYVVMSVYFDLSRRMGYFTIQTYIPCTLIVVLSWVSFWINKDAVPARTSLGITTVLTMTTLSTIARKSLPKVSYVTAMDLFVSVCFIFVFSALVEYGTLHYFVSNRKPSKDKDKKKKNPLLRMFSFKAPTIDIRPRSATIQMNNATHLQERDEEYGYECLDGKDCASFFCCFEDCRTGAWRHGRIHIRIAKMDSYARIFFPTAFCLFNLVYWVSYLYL", "sequence (P63137 25-474 partner limits assumed)": "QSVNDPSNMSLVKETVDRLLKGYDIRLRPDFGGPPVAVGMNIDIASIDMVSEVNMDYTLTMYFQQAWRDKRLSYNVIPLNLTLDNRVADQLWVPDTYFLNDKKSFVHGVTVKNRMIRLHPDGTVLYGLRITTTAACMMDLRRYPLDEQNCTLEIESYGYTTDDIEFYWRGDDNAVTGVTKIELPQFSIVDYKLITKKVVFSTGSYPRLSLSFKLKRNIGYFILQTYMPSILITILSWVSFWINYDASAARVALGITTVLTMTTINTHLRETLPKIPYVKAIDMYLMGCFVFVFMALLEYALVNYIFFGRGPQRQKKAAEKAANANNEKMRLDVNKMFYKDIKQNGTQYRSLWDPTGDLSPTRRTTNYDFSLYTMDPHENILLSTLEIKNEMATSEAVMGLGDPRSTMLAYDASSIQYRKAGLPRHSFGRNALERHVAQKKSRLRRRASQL", "assay": "In vivo [3H]Ro 15-1788 binding, cerebellum", "protocol": "as §1, §2"}, "[4]": {"tested_on": "benzodiazepine binding site of α1-containing GABA receptors", "assay": "In vivo [3H]Ro 15-1788 binding, cerebellum", "conditions": "male, Swiss-Webster, mouse, cerebellum, intraperitoneal, 1 mg/kg, probe [3H]Ro 15-1788", "protocol": "as §1, §2"}, "α6β3γ2": {"biological_target": "T1, α6β3γ2 (Homo sapiens, UniProt P18507+Q16445)", "T1 construct": "expressed in transfected cells", "T1 sequence (Q16445 20-453)": "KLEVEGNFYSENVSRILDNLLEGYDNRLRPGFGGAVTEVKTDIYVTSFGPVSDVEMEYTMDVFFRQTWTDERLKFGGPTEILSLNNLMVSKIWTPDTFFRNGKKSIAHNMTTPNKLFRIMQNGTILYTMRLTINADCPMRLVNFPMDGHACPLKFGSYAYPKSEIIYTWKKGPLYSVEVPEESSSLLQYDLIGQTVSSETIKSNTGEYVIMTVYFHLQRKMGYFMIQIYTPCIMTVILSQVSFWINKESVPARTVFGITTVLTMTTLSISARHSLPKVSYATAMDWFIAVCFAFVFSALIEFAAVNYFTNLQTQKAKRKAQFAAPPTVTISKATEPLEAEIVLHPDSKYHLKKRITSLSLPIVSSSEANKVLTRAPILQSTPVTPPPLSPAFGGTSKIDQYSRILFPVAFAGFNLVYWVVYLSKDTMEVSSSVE", "T1 sequence (P28472 26-473 partner)": "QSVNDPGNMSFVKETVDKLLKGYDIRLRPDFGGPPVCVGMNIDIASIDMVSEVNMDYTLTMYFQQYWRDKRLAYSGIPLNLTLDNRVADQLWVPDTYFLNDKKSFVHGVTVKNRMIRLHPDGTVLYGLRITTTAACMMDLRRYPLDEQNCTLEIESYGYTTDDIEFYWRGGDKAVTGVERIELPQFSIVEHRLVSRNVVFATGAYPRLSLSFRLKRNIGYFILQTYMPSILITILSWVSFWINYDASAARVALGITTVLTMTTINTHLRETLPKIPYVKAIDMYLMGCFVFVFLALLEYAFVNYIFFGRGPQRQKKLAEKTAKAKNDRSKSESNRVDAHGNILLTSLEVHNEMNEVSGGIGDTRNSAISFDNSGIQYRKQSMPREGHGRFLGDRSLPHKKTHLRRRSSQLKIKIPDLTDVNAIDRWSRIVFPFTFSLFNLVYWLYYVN", "T1 sequence (P18507 40-467 isoform P18507-1 limits assumed)": "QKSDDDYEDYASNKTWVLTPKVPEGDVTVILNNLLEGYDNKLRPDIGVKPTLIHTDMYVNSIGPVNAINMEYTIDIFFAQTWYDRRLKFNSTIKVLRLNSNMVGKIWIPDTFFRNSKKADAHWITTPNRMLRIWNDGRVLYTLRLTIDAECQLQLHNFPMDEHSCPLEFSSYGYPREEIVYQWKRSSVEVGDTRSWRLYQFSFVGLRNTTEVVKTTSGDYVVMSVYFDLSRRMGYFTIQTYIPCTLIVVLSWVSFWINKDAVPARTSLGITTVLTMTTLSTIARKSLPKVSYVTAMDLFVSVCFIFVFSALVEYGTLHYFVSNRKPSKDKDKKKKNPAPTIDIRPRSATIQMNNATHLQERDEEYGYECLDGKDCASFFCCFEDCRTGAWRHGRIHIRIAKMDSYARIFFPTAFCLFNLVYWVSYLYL", "assay": "Radioligand binding, membranes of stably transfected cells"}, "[5]": {"biological_target": "α5 subtype containing GABA-A receptors (Rattus norvegicus, UniProt P18508+P19969)", "sequence (P19969 32-464 limits assumed)": "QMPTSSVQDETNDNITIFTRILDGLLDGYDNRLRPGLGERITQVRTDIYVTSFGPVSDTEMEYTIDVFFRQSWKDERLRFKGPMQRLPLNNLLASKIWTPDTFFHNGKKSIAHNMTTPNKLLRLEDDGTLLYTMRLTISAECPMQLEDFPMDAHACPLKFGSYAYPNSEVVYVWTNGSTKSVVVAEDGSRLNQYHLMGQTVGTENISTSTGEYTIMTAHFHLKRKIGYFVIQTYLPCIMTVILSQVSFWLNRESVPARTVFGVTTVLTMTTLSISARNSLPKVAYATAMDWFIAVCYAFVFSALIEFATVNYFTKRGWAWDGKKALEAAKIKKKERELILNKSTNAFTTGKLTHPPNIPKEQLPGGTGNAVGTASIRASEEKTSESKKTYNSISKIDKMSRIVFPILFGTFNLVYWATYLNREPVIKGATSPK", "sequence (P18508 39-466)": "as the sequence (P18507 40-467 isoform P18507-1 limits assumed) above", "sequence (P63079 26-473 partner)": "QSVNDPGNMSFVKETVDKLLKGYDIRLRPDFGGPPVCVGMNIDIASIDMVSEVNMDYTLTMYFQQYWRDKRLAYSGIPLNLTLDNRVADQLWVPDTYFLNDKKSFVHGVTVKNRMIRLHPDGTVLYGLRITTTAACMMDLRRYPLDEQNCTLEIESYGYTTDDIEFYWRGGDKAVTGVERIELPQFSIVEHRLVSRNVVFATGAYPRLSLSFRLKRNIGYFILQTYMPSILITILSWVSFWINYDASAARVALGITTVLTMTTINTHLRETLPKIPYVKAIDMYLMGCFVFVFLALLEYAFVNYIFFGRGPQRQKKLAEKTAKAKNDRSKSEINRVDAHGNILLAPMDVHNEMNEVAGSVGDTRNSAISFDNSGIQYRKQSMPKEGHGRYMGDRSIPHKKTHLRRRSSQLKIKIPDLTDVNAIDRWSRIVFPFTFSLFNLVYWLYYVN", "assay": "In vivo [3H]FG 8094 binding after pellet implantation", "conditions": "SC pellet, after first four swim trials, [3H]FG 8094 IV", "description": "In a second experiment the vehicle or FG pellets were implanted into rats exactly as described above. However, after the first four swim trials the animals were injected (IV) with [^3H]FG 8094 and three mins later the brains of the animals were rapidly removed."}, "male Sprague Dawley rats": {"tested_on": "male Sprague Dawley rats", "assay": "Pro-convulsant testing, acute treatment, PTZ infusion", "assay_type": "in vivo, rat", "conditions": "0.5-4.0 mg/kg IP 30 min prior to PTZ infusion", "protocol": "Sixty naive male Sprague Dawley rats (225-265 g) housed in groups of four with food and water freely available, served as subjects. The rats were assigned to one of six groups and given: Vehicle or 0.5, 1.0, 2.0, 4.0 mg/kg of […] or 10.0 mg/kg of the non-selective receptor inverse agonist, CGS 8216, a known pro-convulsant agent. Vehicle, FG 8094 or CGS 8216 was administered IP 30 min prior to an infusion of the convulsant, pentylenetetrazole (PTZ, 40 mg/ml). PTZ was infused into the tail vein of the rat at the rate of 1.0 ml/min. The latency to clonic and tonic seizure were recorded and the threshold to each was calculated using the equation: Threshold dose=infusion rate (ml/s)×PTZ (mg/ml)×(1000/rats weight)×latency(s)."}, "α5β3γ2": {"biological_target": "T2, α5β3γ2 (Homo sapiens, UniProt P18507+P31644)", "T2 construct": "expressed in transfected cells", "T2 sequence (P31644 32-462)": "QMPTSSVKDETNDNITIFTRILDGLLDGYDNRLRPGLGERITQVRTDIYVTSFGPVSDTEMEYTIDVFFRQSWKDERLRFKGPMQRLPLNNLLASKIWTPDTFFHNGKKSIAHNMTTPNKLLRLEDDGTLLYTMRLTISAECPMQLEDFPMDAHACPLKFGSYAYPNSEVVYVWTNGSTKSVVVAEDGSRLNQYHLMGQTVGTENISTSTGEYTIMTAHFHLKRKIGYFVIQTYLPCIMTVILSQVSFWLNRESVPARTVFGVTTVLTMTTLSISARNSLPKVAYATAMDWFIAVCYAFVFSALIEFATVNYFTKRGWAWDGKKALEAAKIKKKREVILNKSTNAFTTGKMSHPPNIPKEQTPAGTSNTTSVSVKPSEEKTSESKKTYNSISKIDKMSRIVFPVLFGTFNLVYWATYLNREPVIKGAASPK", "T2 sequence (P28472 26-473 partner)": "as the sequence (P28472 26-473 partner) above", "T2 sequence (P18507 40-467 isoform P18507-1 limits assumed)": "as the sequence (P18507 40-467 isoform P18507-1 limits assumed) above", "assay": "Radioligand binding, membranes of stably transfected cells"}, "α2β3γ2": {"biological_target": "T3, α2β3γ2 (Homo sapiens, UniProt P18507+P47869)", "T3 construct": "expressed in transfected cells", "assay": "Radioligand binding, membranes of stably transfected cells"}, "α1β3γ2": {"biological_target": "α1β3γ2 (Homo sapiens, UniProt P14867+P18507)", "sequence (P14867 28-456)": "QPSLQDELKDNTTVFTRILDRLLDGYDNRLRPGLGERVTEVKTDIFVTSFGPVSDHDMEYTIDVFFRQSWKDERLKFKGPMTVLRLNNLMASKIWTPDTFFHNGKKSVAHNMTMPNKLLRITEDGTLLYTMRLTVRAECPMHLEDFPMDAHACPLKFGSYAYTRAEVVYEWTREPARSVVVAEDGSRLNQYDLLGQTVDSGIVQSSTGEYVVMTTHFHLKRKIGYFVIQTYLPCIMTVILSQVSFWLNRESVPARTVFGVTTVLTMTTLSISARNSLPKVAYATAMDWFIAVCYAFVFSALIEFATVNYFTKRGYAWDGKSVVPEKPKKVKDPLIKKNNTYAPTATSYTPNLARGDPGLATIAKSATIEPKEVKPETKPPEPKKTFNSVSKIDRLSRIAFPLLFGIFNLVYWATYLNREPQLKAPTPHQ", "sequence (P28472 26-473 partner)": "as the sequence (P28472 26-473 partner) above", "sequence (P18507 40-467 isoform P18507-1 limits assumed)": "as the sequence (P18507 40-467 isoform P18507-1 limits assumed) above", "assay": "biochemical", "description": "Radioligand binding studies were carried out using membranes prepared from cells stably transfected with the following subunit combinations:—α1β3γ2, α2β3γ2, α3β3γ2, α5β3γ2, α6β3γ2. Incubations were carried out using 20-100 mg of membrane protein in a total volume of 0.5 ml in 10 mM Tris-HCl, 1 mM EDTA pH 7.4 for one hour at room temperature prior to termination through Whatman GF/C filters followed by 3×3 ml washes with 5 mM Tris-HCl pH 7.5 and scintillation counting. […] Ki values were calculated according to the Cheng-Prussof equation.\nKi values were calculated according to the Cheng-Prussof equation. Data shown are mean±SEM values for 3-6 determinations."}, "α3β3γ2": {"biological_target": "T4, α3β3γ2 (Homo sapiens, UniProt P18507+P34903)", "T4 construct": "expressed in transfected cells", "assay": "Radioligand binding, membranes of stably transfected cells"}, "[6]": {"tested_on": "non-α5 subtype containing GABA-A receptors", "assay": "In vivo [3H]Ro 15-1788 binding after pellet implantation", "design": "species or system rat", "conditions": "SC pellet"}, "[7]": {"conditions": "ip, read-out: percentage inhibition of in vivo [3H]Ro 15-1788 binding, cerebellum"}},
  "data": [
    {"compound": "CCOC(=O)c1ncn2c1[C@@H]1CCCN1C(=O)c1cc(OC)ccc1-2", "note": "[FG 8094, 9H-imidazo[1,5-a]pyrrolo[2,1-C][1,4]benzodiazepine-1-carboxylic acid, 11, 12, 13, 13a-tetrahydro-7-methoxy-9-oxo-, ethyl ester, (S)-(9CI)]", "values": [
      {"measurement": "threshold dose of PTZ to clonic or tonic seizure", "setting": "rats [1]", "value": "no significant effect of treatment"},
      {"measurement": "concentration at 30 min", "setting": "[2]", "value": 13.2, "unit": "nM"},
      {"measurement": "occupancy of α2/3 receptors", "setting": "Spinal cord (α2/3); 1.0 mg/kg", "value": "less than 35%"},
      {"measurement": "percentage inhibition of in vivo [3H]Ro 15-1788 binding, spinal cord", "setting": "Spinal cord (α2/3); 1 mg/kg ip", "value": "33.8 ± 7.4"},
      {"measurement": "percentage inhibition of in vivo [3H]Ro 15-1788 binding, spinal cord", "setting": "Spinal cord (α2/3); 10 mg/kg ip", "value": "74.2 ± 3.8"},
      {"measurement": "displacement of [3H]Ro 15-1788 binding, whole brain", "setting": "GABAA receptors; 10.0 mg/kg intraperitoneally, p<0.05", "value": "significantly displaced"},
      {"measurement": "displacement of specific [3H]Ro 15-1788 binding, whole brain", "setting": "GABAA receptors; intraperitoneally at doses of up to 3.0 mg/kg", "value": "did not significantly displace"},
      {"measurement": "convulsions or sedation", "setting": "rats [3]; SC pellet", "value": "did not cause convulsions or sedation"},
      {"measurement": "watermaze performance", "setting": "rats [3]; pellet implanted SC 2 hrs before, training on one day", "value": "improved performance"},
      {"measurement": "inhibition at 1 mg/kg", "setting": "Cerebellum (α1); [7]", "value": "13.8 ± 4.9", "unit": "%"},
      {"measurement": "inhibition at 10 mg/kg", "setting": "Cerebellum (α1); [7]", "value": "55 ± 6.9", "unit": "%"},
      {"measurement": "receptor occupancy at 1 mg/kg", "setting": "Cerebellum (α1); read-out: occupancy of α1 receptors", "value": "< 15", "unit": "%"},
      {"measurement": "concentration at 30 min", "setting": "[4]", "value": 7.8, "unit": "nM"},
      {"measurement": "Ki", "setting": "α6β3γ2", "value": "83.2 ± 4.5", "unit": "nM"},
      {"measurement": "occupancy of α5 subtype containing GABA-A receptors in the brain", "setting": "[5]", "value": "approximately 85%"},
      {"measurement": "pro-convulsant effects", "setting": "male Sprague Dawley rats", "value": "devoid of pro-convulsant effects"},
      {"measurement": "Ki", "setting": "α5β3γ2", "value": "0.45 ± 0.15", "unit": "nM"},
      {"measurement": "selectivity for α5-containing receptors over α1", "setting": "α5β3γ2; over α1", "value": 107, "unit": "fold"},
      {"measurement": "selectivity for α5-containing receptors over α2", "setting": "α5β3γ2; over α2", "value": 60, "unit": "fold"},
      {"measurement": "selectivity for α5-containing receptors over α3", "setting": "α5β3γ2; over α3", "value": 53, "unit": "fold"},
      {"measurement": "selectivity for α5-containing receptors over α6", "setting": "α5β3γ2; over α6", "value": 184, "unit": "fold"},
      {"measurement": "Ki", "setting": "α2β3γ2", "value": "27.4 ± 2.5", "unit": "nM"},
      {"measurement": "Ki", "setting": "α1β3γ2", "value": "48.5 ± 6", "unit": "nM"},
      {"measurement": "Ki", "setting": "α3β3γ2", "value": "24.5 ± 2", "unit": "nM"},
      {"measurement": "occupancy of non-α5 subtype containing GABA-A receptors", "setting": "[6]", "value": "did not significantly occupy"}
    ]}
  ]
}
